A word on the TGI: it is the concentration at which net growth stops. Low values mean greater sensitivity of the cells, high ones lower sensitivity of the cells. As a reminder, the GI50 is the concentration at which growth is held to half of that of the control.

Structures are written as SMILES.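 Dose response: 5 concentrations. Exposure: 48 h. Format: 96-well plates. Endpoint: linear interpolation; highest concentration if not reached. GI50: concentration for 50% inhibition of growth. TGI: total growth inhibition.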

Common to all, as to assay: DTP human tumour cell line panel, 48 h
The subject of assay [1] is CAKI-1 renal.
Assay [2] has as its system HCT-116 colon.
Assay [3] relates to MDA-MB-231 breast.
The subject of assay [4] is MDA-MB-435.
In assay [5] the test system is MDA-N.
Assay [6] relates to MOLT-4 leukemia.
Assay [7] has as its system NCI-H226 lung.
Assay [8] has as its system NCI-H23 lung.
The subject of assay [9] is NCI-H460 lung.
Assay [10] relates to NCI-H522 lung.
The test system of assay [11] is NCI/ADR-RES ovarian.
Assay [12] has as its system OVCAR-8 ovarian.
In assay [13] the test system is SF-268 CNS.
In assay [14] the test system is SK-MEL-5 melanoma.
Assay [15] concerns SW-620 colon.
Assay [16] relates to TK-10 renal.
Assay [17] relates to SR leukemia.

In the case of `Cc1cc(C)c(S(=O)(=O)N2CCCN(S(=O)(=O)c3c(C)cc(C)cc3C)OCCCO2)c(C)c1`, the total growth inhibition concentration (TGI) in [1], in assay [2], in assay [3], in assay [4], in assay [5] and in [6] was more than 100 µM throughout. Moreover, the total growth inhibition concentration (TGI) in assay [7], in [8], in assay [9], in [10], in assay [11] and in [12] was more than 100 µM throughout. Further, the TGI in assay [13], in [14], in [15] and in [16] was more than 100 µM in each case.
With `N#Cc1c(=O)c2ccccc2n2c1[nH]c1ccccc12`, the total growth inhibition concentration (TGI) in assay [1], in assay [2], in assay [3], in assay [4], in assay [6] and in [7] was more than 100 µM throughout. In addition, the total growth inhibition concentration (TGI) in assay [8] is more than 100 µM; in assay [9], more than 100 µM; in assay [11], 70.4 µM; in assay [12], more than 100 µM; in assay [13], more than 100 µM; in assay [17], 43.8 µM. Besides, the concentration for total growth inhibition (TGI) in assay [15] and in assay [16] was more than 100 µM throughout.
Consider `CN1C/C(=C\c2cccs2)C2=NN(C)C(c3cccs3)C2C1` (configuration not stated), for which the concentration for total growth inhibition (TGI) in assay [1], in [2], in assay [3], in assay [4], in [5] and in [6] was more than 100 µM in each case. In addition, the TGI in assay [7], in [8], in [9], in [10], in [11] and in [12] was more than 100 µM throughout. The total growth inhibition concentration (TGI) in assay [13], in [14], in assay [15] and in assay [16] was more than 100 µM each time.
As for `Nn1c(CCCCCCCCc2nnc(COc3ccc4ccccc4c3O)n2N)nnc1COc1ccc2ccccc2c1O`, the TGI in [1] was 41.8 µM; in [2], 29.3 µM; in [3], 76.9 µM; in assay [4], more than 100 µM; in [6] it was more than 100 µM; in assay [7] it was 79.1 µM. The total growth inhibition concentration (TGI) in [8] is 41.6 µM; in [9], more than 100 µM; in [10] it was 42 µM; in assay [11], 60.7 µM; in assay [13], more than 100 µM; in assay [14] it was 37.5 µM. For the same compound, the TGI in assay [15] and in [16] was more than 100 µM each time.
Regarding `CCOC(=O)NC1C2CC(=O)OC(O2)C1OC(C)=O` (configuration not stated), the TGI in assay [1], in [2], in [3], in assay [4], in [6] and in [8] was more than 100 µM each time. Also, the total growth inhibition concentration (TGI) in assay [9], in assay [10], in assay [11], in [12], in assay [13] and in assay [14] was more than 100 µM each time. Besides, the concentration for total growth inhibition (TGI) in assay [17], in assay [15] and in assay [16] was more than 100 µM in each case. Further, the GI50 in assay [3], in assay [4] and in assay [11] was more than 100 µM throughout.
`CCOC(=O)N1c2c(ccn2C)-c2ccn(C)c2N1C(=O)OCC`: the TGI was found to be 44.8 µM in assay [1]; 29.4 µM in assay [2]; 40.4 µM in assay [6]; 37.5 µM in [7]; 49.3 µM in assay [9]; 25 µM in [10]. For the same compound, the TGI was 27.9 µM in [12]; 38.7 µM in assay [13]; more than 100 µM in assay [14]; 43.8 µM in [17]; 28.6 µM in assay [15].
Regarding `CC(=O)NC1=C(NC(C)(C)C)C(=O)c2ccccc2C1=O`, the TGI in [1] stood at 30 µM; in assay [2] it was 64.2 µM; in assay [6] it was 26.7 µM; in assay [7], 27.6 µM; in assay [8] it was 35.2 µM; in assay [9] it was 41.1 µM. Also, the TGI in assay [12] worked out at 39.5 µM; in assay [13], 55.6 µM; in [14] it was 32.5 µM; in assay [15] it was 30.1 µM; in [16], 33.5 µM.
`COc1ccc(P2(=S)Oc3ccccc3-c3ccccc3O2)cc1`: the TGI in [2] is more than 38.7 µM; in assay [3], more than 100 µM; in [6], more than 100 µM; in [7], more than 100 µM; in assay [8] it was more than 100 µM; in [9] it was more than 100 µM. Moreover, the TGI in [11] was more than 100 µM; in assay [12], more than 40.6 µM; in assay [13] it was more than 100 µM; in assay [14] it was more than 79.7 µM; in [15], more than 100 µM; in assay [16], more than 100 µM.
On to `N#CC(C#N)=C/C=C(\Sc1c(Cl)c(Cl)nc(Cl)c1Cl)c1ccc(Cl)cc1`, for which the TGI was 34.2 µM in assay [1]; 34.8 µM in [2]; 60 µM in assay [3]; 20.3 µM in [4]; more than 100 µM in assay [6]; 67.9 µM in assay [7]. The TGI in [8] is 35.9 µM; in assay [9] it was more than 100 µM; in assay [10], 56.5 µM; in [11], 36.1 µM; in [12] it was more than 100 µM; in assay [13], 54.1 µM. In addition, the TGI in assay [14] is 27.7 µM; in assay [17] it was 68.8 µM; in assay [15], 25.9 µM; in assay [16] it was 41.2 µM.
Turning to `Cc1ccc(/C(O)=C/c2nc3c(nc2NC24CC5CC(CC(C5)C2)C4)c(=O)oc2ccccc23)cc1`, the TGI in [1], in assay [2], in assay [6], in assay [7], in [8] and in assay [9] was more than 100 µM in each case. Moreover, the TGI in assay [10], in assay [12], in assay [13], in assay [14], in assay [17] and in assay [15] was more than 100 µM each time. The same compound came in with a TGI in [16] of more than 100 µM.
For `O=C1[C@H]2ON(c3ccccc3)C(c3ccccc3)[C@H]2C(=O)N1c1ccc(Cc2ccc(N3C(=O)[C@@H]4ON(c5ccccc5)C(c5ccccc5)[C@@H]4C3=O)cc2)cc1` (some centres not stated), the TGI in assay [1], in [6], in [7], in assay [8], in assay [9] and in assay [13] was more than 100 µM each time. The total growth inhibition concentration (TGI) in [14] and in assay [15] was more than 100 µM each time.
As for `O=C1Cc2c([nH]c3ccccc23)-c2ccccc2N1`, the TGI in assay [1] was more than 100 µM; in assay [2] it was 31.9 µM; in assay [6], 94.3 µM; in [7] it was more than 100 µM; in [8], 61.1 µM; in [9] it was more than 100 µM. In addition, the total growth inhibition concentration (TGI) in assay [10] is 62.6 µM; in assay [12], more than 100 µM; in assay [13], more than 100 µM; in assay [14], more than 100 µM; in assay [15], 66.7 µM; in assay [16] it was more than 100 µM.
In the case of `CCN1C(=O)C(=C/C=C/C=C2/N(C)c3ccccc3C2(C)C)C(=O)N(CC)C1=S`, the concentration for total growth inhibition (TGI) in assay [1], in assay [2], in [3], in assay [4], in [5] and in assay [7] was more than 100 µM in each case. Also, the concentration for total growth inhibition (TGI) in assay [8], in assay [9], in [10], in assay [11], in assay [12] and in assay [13] was more than 100 µM in each case. The total growth inhibition concentration (TGI) in [15] and in assay [16] was more than 100 µM throughout.
On to `CCOC(=O)/C(=C\c1ccc(N(CCC#N)CCC#N)cc1)NC(=O)c1cc([N+](=O)[O-])ccc1Cl`, for which the TGI in assay [1], in assay [2], in [6], in assay [7], in assay [8] and in [9] was more than 100 µM in each case. The TGI in assay [10], in [12], in assay [13], in assay [14], in [15] and in assay [16] was more than 100 µM each time.
Turning to `COc1cc2nc(-c3cccs3)nc(N3CCN(c4ccccc4C(F)(F)F)CC3)c2cc1OC`, the TGI in [1], in [2], in assay [3], in assay [4], in assay [6] and in assay [7] was more than 100 µM in each case. Besides, the concentration for total growth inhibition (TGI) in [8], in [9], in [10], in assay [11], in assay [12] and in assay [13] was more than 100 µM in each case. Besides, the TGI in [14], in assay [15] and in assay [16] was more than 100 µM each time.
For the compound `CC(=O)OC[C@]1(C)CCCC2(C)C1CCC1C=C(C)[C@H]3CCC12C3` (some centres not stated), the concentration for total growth inhibition (TGI) in assay [1], in assay [2], in assay [6], in [7], in [8] and in assay [9] was more than 100 µM throughout. Moreover, the TGI in assay [10] was 75 µM; in [12], more than 100 µM; in assay [13], more than 100 µM; in assay [14], more than 100 µM; in [17], more than 100 µM; in assay [15] it was more than 100 µM. The compound further returned a TGI in assay [16] of more than 100 µM.
Regarding `C/C(=N\n1c(Cc2ccccc2)n[nH]c1=O)c1ccccc1`, the concentration for total growth inhibition (TGI) in assay [1], in [2], in [3], in assay [4], in assay [5] and in assay [6] was more than 100 µM throughout. Moreover, the TGI in [7], in [8], in assay [10], in [11], in assay [12] and in [13] was more than 100 µM throughout. The concentration for total growth inhibition (TGI) in [14], in assay [15] and in [16] was more than 100 µM throughout.
`Cc1nc(C(N)=S)sc1C(=O)CC(=O)C(=O)Nc1ccccc1[N+](=O)[O-]`: the TGI in assay [1], in assay [2], in [6], in assay [8], in assay [9] and in [10] was more than 100 µM each time. In addition, the TGI in [12], in assay [13], in assay [14], in [17], in assay [15] and in assay [16] was more than 100 µM in each case.
With `C/C=C1\C=C(OC)CN(CCc2c[nH]c3ccccc23)C1`, the total growth inhibition concentration (TGI) in assay [2], in [6], in [7], in assay [8], in assay [9] and in [10] was more than 100 µM each time. The concentration for total growth inhibition (TGI) in assay [12] is more than 100 µM; in assay [13], 95.5 µM; in assay [14], 53.3 µM; in assay [17], more than 100 µM; in assay [15], more than 100 µM; in assay [16], more than 100 µM.
Regarding `Cc1ccccc1NC(=O)c1c(C)oc2c1C(=O)c1ccccc1C2=O`, the TGI in assay [1] is more than 100 µM; in [2], more than 100 µM; in assay [6], 47.4 µM; in assay [7], more than 100 µM; in assay [8], 93.5 µM; in assay [9], more than 100 µM. Also, the concentration for total growth inhibition (TGI) in [10] was 35.8 µM; in assay [12], more than 100 µM; in assay [13], more than 100 µM; in assay [14], 27.1 µM; in assay [17], 75.5 µM; in [15] it was more than 57.9 µM. For the same compound, the TGI in assay [16] was more than 100 µM.

(Values after PubChem BioAssay (NCI).)
